Measured values as given in patent US8415480B2, “Thiazolidine carboxamide derivatives as modulators of the prostaglandin F receptor” (Merck Serono SA, priority 2002, dated 2013).

Tests used:
[1] = target: T1, human Prostaglandin F2α receptor (Homo sapiens, UniProt P43088); test: In vitro competition binding assay on human Prostaglandin F2α receptor (Scintillation Proximity Assay, 3H PGF2-alpha radioligand); conditions: scintillation proximity competition binding assay against Prostaglandin F2α as radioligand; read-out: Binding affinity for human Prostaglandin F2α receptor Ki
T1 construct: Human Prostaglandin F2α receptor (full-length cDNA) was subcloned into the pCEP4; expressed in transfected cells; host or cells: HEK 293 EBNA cells (membrane preparation)
Excerpt: The compounds of formula (II), were be subjected to the following in vitro and in vivo biological assays: • 1) In vitro competition binding assay on human Prostaglandin F2α receptor using a Scintillating Proximity Assay (SPA)
This assay allows to determine the binding affinity of the test compounds of formula (I) for the human Prostaglandin F2α receptor: […]
Human Prostaglandin F2α receptor (full-length cDNA) was subcloned into the pCEP4 (Invitrogen) vector and transfected together with the hygromycin resistance gene into HEK 293 EBNA cells by Calcium-phosphate co-precipitation method. Antibiotic resistant cells were grown under constant selection pressure in DMEM/F-12 medium supplemented with 2% fetal calf serum, 4 mM L-Glutamine and 8 ml/l Insulin-Transferrin-Selenium-mix (all Invitrogen) and 300 μg/ml hygromycin at 37° C. in a humidified atmosphere of 5% CO2 in air. At 48 h before harvesting, receptor expression was enhanced by adding 5 mM of Na-butyrate. Cells were washed twice with phosphate buffer saline, harvested and pelleted by centrifugation.
Cell pellet was lysed by Dounce homogenisation in 250 mM sucrose, 25 mM Tris-HCl pH 7.5, 10 mM MgCl2, 1 mM EDTA containing proteases inhibitors according to the manufacturer (Boehringer Mannheim) at 4° C. The lysate was centrifuged at 1000 g, 4° C. for 10 min and the supernatant was centrifuged at 160000 g, 4° C. for 60 min. The membranes pellets were resuspended in binding buffer (10 mM MES pH 6.2, 10 mM MgCl2, 1 mM EDTA containing proteases inhibitors), frozen in dry ice ethanol and stored at −80° C.
In vitro competition binding with Scintillation proximity assay (SPA) was performed in Corning NBS 96 wells plates. Briefly, 100 μl of binding buffer containing 15 to 30 μg of purified membranes, 4 mg/ml of wheat-germ agglutinin (WGA) SPA beads and 1 to 2 nM of ^3H PGF2-alpha (determined by Scatchard analysis) in 1% DMSO was incubated for 2 hours at room temperature. Non-specific binding was determined in the presence of 1 μM of non-radioactive Prostaglandin F2α. The concentrations of compounds (antagonist) used to compete with the radioactive ligand (agonist) were 10 μM, 3 μM, 1 μM, 300 nM, 100 nM, 30 nM, 10 nM, 1 nM, 100 pM, 10 pM. The radioactivity was counted on a Microbeta plate counter and the binding data were analysed using the iterative, non-linear, curve-fitting program, “Prism” (GraphPad Software, Inc).

[2] = system: spontaneous uterine contractions in late-term pregnant Sprague Dawley female rats; test: Spontaneous uterine contractions in late-term pregnant rats; assay type: in vivo, rat
Excerpt: b) Spontaneous Uterine Contractions in Late-Term Pregnant Rats: • (i) Preparation of the Experiment:
Late-term pregnant (19-21 days of gestation) Sprague Dawley female rats (Charles River, Calco, Italy) weighing 350-400 g were anesthetized with urethane (1.05 g/kg, i.p.) and placed on a homeothermic operating table. The trachea was isolated and cannulated with a suitable polyethylene (PE) tubing. A midline incision at the hypogastrium level was made, one pregnant uterine horn exposed and its tubal end closed (near the ovary) by a ligature with surgical silk. In the correspondence of the last foetus near the above-mentioned ovary, the uterine horn wall was incited taking care not to injure the adjacent placenta, and a PE240 tubing with a latex balloon (9 mm length when empty, capacity 0.1 ml; Radnoti, Monrovia, Calif., USA) on the top was inserted into the lumen and secured with surgical silk. After filling the internal cavity of the latex balloon with 0.1 ml of sterile physiological saline solution, the catheter was connected to an amplifying/recording system (MacLab, ADInstruments Pty Ltd, Castle Hill, Australia) via a P23ID Gould Statham pressure transducer. […]
The spontaneous contractile response of the uterus was quantified by evaluating the area under the curve (AUC) of the changes in the intra-luminal uterine pressure over time (by Chart V4.04 for Windows software, PowerLab ADInstruments, Castle Hill, Australia). The effect of the test compound on the spontaneous uterine contraction was evaluated as the percent variation of the AUC calculated in a 10-min interval following the administration of each dose of test compound as compared to the AUC in a 10-min interval before the administration of the first dose of test compound (basal value). When possible, a dose-response curve (of peak effect) was plotted and the relative ED50 value calculated (by S-Plus 2000 v. 4.6 statistical software, Mathsoft, Inc. Seattle, Wash., USA).

[3] = target: T1, human Prostaglandin F2α receptor; test: Inhibition of Prostaglandin F2α induced IP3 synthesis in HEK/EBNA cells expressing the Prostaglandin F2α receptor; assay type: cell-based; conditions: HEK EBNA cells expressing the human Prostaglandin F2α receptor; 30 nM PGF2α
Description: • 2) In vitro functional assay 1: Inhibition of Prostaglandin F2α induced IP3 (Inositol Triphosphate) Synthesis in HEK/EBNA-cells expressing the Prostaglandin F2α receptor
Cells were transfected by the calcium phosphate precipitation method with the appropriate plasmid and selected for hygromycinB resistance. The surviving colonies were assayed for their ability to retain specific [^3H] PGF2α binding. Selected clones were maintained in DMEM-F12 medium supplemented with 4 mM L-glutamine, 300 μg/ml hygromycinB and 2% fetal bovine serum (10% for cells expressing rFP).
Cells were detached with PBS/EDTA, washed with inositol-free DMEM-F12 medium and seeded at 80000 cells/well in a Poly-L-Lysine precoated 12 well plate. Cells were labelled with myo-[^3H] Inositol at 4 μCi/ml in inositol-free DMEM-F12 supplemented with 1% fetal bovine serum, 4 mM L-glutamine and 300 μg/ml hygromycinB. After 24 hours (rFP expressing cells) or 40 hours (hFP expressing cells), the medium was removed and cells were pre-incubated for 10 min in assay buffer (DMEM-F12 without Inositol, 20 mM Hepes, 0.1% BSA) containing 20 mM LiCl at 37° C. For agonist dose response, cells were then stimulated for 1 hour at room temperature with increasing concentration of PGF2α, in assay buffer. […] For agonist activity determination of the test compounds themselves, the test compounds were added to the cells at 10 μM and 1 μM for 1 hour at room temperature.
800 μl were then transferred to 400 μl of neutralizing solution (0.72N KOH, 0.6 M KHCO3), vortexed, and sedimented for at least 2 hours at 4° C. After centrifugation of 15 min. at 2500 g, 1 ml of the supernatant was loaded on a chromatography column, followed by two washes with 10 ml of water. The IP3 to be quantified were eluted with 3 ml elution buffer (1M ammonium formate, 0.1 M formic acid) and radioactivity was counted on a Beckman LS6000TA scintillation counter to measure the amount of phosphorylated [^3H] inositol.

[4] = target: T1, human Prostaglandin F2α receptor; test: Inhibition of Prostaglandin F2α induced Ca2+-mobilization in HEK/EBNA cells expressing the Prostaglandin F2α receptor (FLIPR); assay type: cell-based; conditions: HEK EBNA cells expressing the human Prostaglandin F2α receptor, 2 times the EC50 of Prostaglandin F2α
Description: • 3) In vitro functional assay 2: Inhibition of Prostaglandin F2α induced Ca^2′-mobilization in HEK/EBNA-cells expressing the Prostaglandin F2α receptor, as measured by FLIPR® (Fluorimetric Imaging Plate Reader).
HEK EBNA cells were seeded at 60000 cells/well in a Poly-L-Lysine precoated black/white bottom 96 well plate. […] Calcium mobilization was then measured on the FLIPR for 4 min. […] After the wash with FLIPR buffer, increasing concentrations of test compounds were added to the cells in FLIPR buffer and calcium mobilization was measured for 1 min.

[5] = system: uterine contractions in non-pregnant Sprague Dawley female rats; test: PGF2α or fluprostenol-induced uterine contractions in non-pregnant rats; assay type: in vivo, rat; conditions: 40 minutes after administration by i.v. route, cumulative dose of 30 mg/kg
Description: a) PGF2α or fluprostenol-induced uterine contractions in non-pregnant rats
Non-pregnant Sprague Dawley female rats (Charles River, Calco, Italy) weighing 200-300 g were used. They received an i.p. injection of 250 μg/kg diethylstilbestrol (DES) 18 and 24 hours before the experiment. On the day of the experiment, they were anaesthetized with urethane (1.05 g/kg, i.p.) and placed on a homeothermic operating table. The trachea was then isolated and cannulated with a suitable polyethylene (PE) tubing. A midline incision at the hypogastrium level was made, one uterine horn exposed and its tubal end closed (near the ovary) by a ligature with surgical silk. About 3 cm posteriorly to the first tie, the uterine horn wall was incited (close to the uterus body) and a PE240 tubing was inserted into the lumen and secured with surgical silk. After filling the internal cavity with 0.2 ml of sterile physiological saline solution, the catheter was connected to an amplifying/recording system (MacLab, ADInstruments Pty Ltd, Castle Hill, Australia) via a P23ID Gould Statham pressure transducer. One jugular vein was then isolated and cannulated with a PE60 catheter connected to a butterfly needle for the intravenous administration of Prostaglandin F2α (Sigma Chem. co., St. Louis, Mo., USA) and (±)fluprostenol (Cayman Chemicals, Ann Arbor, Mich., USA) or test compounds. […]

T1 sequence (P43088 whole entry): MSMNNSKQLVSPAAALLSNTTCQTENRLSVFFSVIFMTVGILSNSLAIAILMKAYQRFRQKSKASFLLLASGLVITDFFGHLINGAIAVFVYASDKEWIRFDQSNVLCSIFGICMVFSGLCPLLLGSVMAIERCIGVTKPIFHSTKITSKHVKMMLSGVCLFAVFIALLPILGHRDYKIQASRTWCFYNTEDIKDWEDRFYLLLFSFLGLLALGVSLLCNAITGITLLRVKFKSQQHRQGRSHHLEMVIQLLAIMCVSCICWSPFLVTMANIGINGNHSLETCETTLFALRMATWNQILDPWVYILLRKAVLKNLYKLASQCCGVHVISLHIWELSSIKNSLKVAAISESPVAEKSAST

Compound	Ki [1]	other results
O=C(NC(CCO)c1ccco1)C1SCCN1S(=O)(=O)c1ccc(-c2ccccc2)cc1 (centres unmarked) [3-([1,1′-biphenyl]-4-ylsulfonyl)-N-[1-(2-furyl)-3-hydroxypropyl]-1,3-thiazolidine-2-carboxamide]	620 nM	
O=C(NC(CN1CCCC1)c1ccccc1)C1SCCN1S(=O)(=O)c1ccc(-c2ccccc2)cc1 (centres unmarked) [3-([1,1′-biphenyl]-4-ylsulfonyl)-N-[1-phenyl-2-(1-pyrrolidinyl)ethyl]-1,3-thiazolidine-2-carboxamide]	170 nM	
O=C(NCCc1ccccc1)NCc1ccc(CNC(=O)C2SCCN2S(=O)(=O)c2ccc(-c3ccon3)s2)cc1 (centres unmarked) [3-{[5-(3-isoxazolyl)-2-thienyl]sulfonyl}-N-{4-[({[(2-phenylethyl)amino]carbonyl}amino)methyl]benzyl}-1,3-thiazolidine-2-carboxamide]	1100 nM	
Cc1c(S(=O)(=O)N2CCSC2C(=O)N[C@@H](Cc2ccccc2)C(=O)O)sc2ccc(Cl)cc12 (stereo partly drawn) [(2S)-2-[({3-[(5-chloro-3-methyl-1-benzothien-2-yl)sulfonyl]-1,3-thiazolidine-2-yl}carbonyl)amino]-3-phenylpropanoic acid]	330 nM	
O=C(N[C@@H](CCO)c1ccccc1)[C@@H]1SCCN1S(=O)(=O)c1ccc(-c2ccccc2)cc1 [Example 1, (2S)-3-([1,1′-biphenyl]-4-ylsulfonyl)-N-[(1S)-3-hydroxy-1-phenylpropyl]-1,3-thiazolidine-2-carboxamide]	65 nM	ED50 ([2]; Rattus norvegicus, iv, 10 min, i.v. infusion over 10 minutes, spontaneous uterine contractions, read-out: calculated ED50 value): 28 mg/kg; calculated ED50 value ([2]; i.v. infusion over 10 minutes, spontaneous uterine contractions): 2.8 mg/kg/min; inhibition of uterine contractions ([2]; i.v. route (infusion over 10 minutes), cumulative dose of 30 mg/kg): > 50%; IC50 [3]: 185 nM; IC50 [4]: 48 nM; inhibition of uterine contractions [5]: 26%
CCC(C)(C)c1ccc(S(=O)(=O)N2CCS[C@H]2C(=O)N[C@@H](CCO)c2ccccc2)cc1 [Example 10, (2S)—N-[(1S)-3-hydroxy-1-phenylpropyl]-3-[(4-tert-pentylphenyl)sulfonyl]-1,3-thiazolidine-2-carboxamide]	120 nM	
O=C(NC(CCO)c1c(F)cccc1F)C1SCCN1S(=O)(=O)c1ccc(-c2ccccc2)cc1 (centres unmarked) [Example 14, 3-([1,1′-biphenyl]-4-ylsulfonyl)-N-[1-(2,6-difluorophenyl)-3-hydroxypropyl]-1,3-thiazolidine-2-carboxamide]	50 nM	
CN(CC[C@H](NC(=O)[C@@H]1SCCN1S(=O)(=O)c1ccc(-c2ccccc2)cc1)c1ccccc1)Cc1ccccc1 [Example 19]	20 nM	
CN(CCO)CC[C@H](NC(=O)[C@@H]1SCCN1S(=O)(=O)c1ccc(-c2ccccc2)cc1)c1ccccc1 [Example 21, (2S)-3-([1,1′-biphenyl]-4-ylsulfonyl)-N-{(1S)-3-[(2-hydroxyethyl)(methyl)-amino]-1-phenylpropyl}-1,3-thiazolidine-2-carboxamide]		IC50 [3]: 225 nM; IC50 [4]: 202 nM
O=C(N[C@H](c1ccccc1)c1ccccn1)[C@@H]1SCCN1S(=O)(=O)c1ccc(-c2ccccc2)cc1 [Example 62, (2S)-3-(1,1′-biphenyl-4-ylsulfonyl)-N—[(R)-phenyl(pyridin-2-yl)methyl]-1,3-thiazolidine-2-carboxamide]	55 nM	IC50 [3]: 15 nM; IC50 [4]: 20 nM
CC(=O)NCCNCCC(NC(=O)C1SCCN1S(=O)(=O)c1ccc(-c2ccccc2)cc1)c1ccccc1 (centres unmarked) [N-(3-{[2-(acetylamino)ethyl]amino}-1-phenylpropyl)-3-([1,1′-biphenyl]-4-ylsulfonyl)-1,3-thiazolidine-2-carboxamide]	1150 nM	
